Our source for the IC50 values is patent US7186743B2, “Substituted pyrazolyl compounds for the treatment of inflammation” (Pharmacia Corporation, priority 2001, dated 2007).

The test addresses T1, IKK2 (Homo sapiens, UniProt O14920).
T1 construct: made in house; host or cells: insect cells (baculovirus, pFastBac; SF9)
T1 sequence (O14920 1-756): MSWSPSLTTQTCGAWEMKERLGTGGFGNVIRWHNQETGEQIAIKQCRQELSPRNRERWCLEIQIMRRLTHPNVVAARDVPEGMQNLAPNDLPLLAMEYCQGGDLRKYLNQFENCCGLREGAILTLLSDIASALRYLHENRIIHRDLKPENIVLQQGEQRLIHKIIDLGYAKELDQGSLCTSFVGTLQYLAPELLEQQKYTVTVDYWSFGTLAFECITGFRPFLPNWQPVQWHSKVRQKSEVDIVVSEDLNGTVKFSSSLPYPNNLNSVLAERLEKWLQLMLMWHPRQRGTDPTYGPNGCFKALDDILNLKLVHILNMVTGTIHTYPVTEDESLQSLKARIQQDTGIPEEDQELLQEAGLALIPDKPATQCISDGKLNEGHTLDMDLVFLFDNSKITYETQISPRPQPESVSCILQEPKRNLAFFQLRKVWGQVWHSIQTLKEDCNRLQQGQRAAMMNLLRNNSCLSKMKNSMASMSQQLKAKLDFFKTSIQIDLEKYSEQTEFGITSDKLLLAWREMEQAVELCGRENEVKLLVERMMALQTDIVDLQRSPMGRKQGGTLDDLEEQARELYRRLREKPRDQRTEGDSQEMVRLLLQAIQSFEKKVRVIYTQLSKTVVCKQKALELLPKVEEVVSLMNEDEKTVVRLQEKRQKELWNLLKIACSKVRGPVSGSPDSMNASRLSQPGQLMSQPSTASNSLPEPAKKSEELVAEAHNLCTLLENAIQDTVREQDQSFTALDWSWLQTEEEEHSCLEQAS
Description: IKKβ Resin Enzyme Assay (IKK2 resin). It counts as biochemical. The method in brief: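 Enzyme: human IKK2 with a C-terminal FLAG tag, baculovirus-expressed, purified as homodimer on anti-FLAG resin. It phosphorylates a biotinylated IκBα peptide with 1 μM ATP plus [γ-33P]ATP in 25 mM Hepes pH 7.6, Mg/Mn, for 30 min at 25° C. Incorporation is counted by scintillation after anion-exchange resin stop.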

The mark [1] stands for this setting: Table 11, read-out: IKK2 Resin IC50.
Setting [2] is: Table 6, read-out: IKK2 Resin IC 50.
The mark [3] stands for this setting: Table 14, read-out: IKK2 Resin IC50.
[4] abbreviates: Table 4, read-out: IKK2 Resin IC50.
Setting [5] is: Table 3, read-out: IKK Resin IC50.
Setting [6] is: Table 2, read-out: IKK Resin IC50.

Like-named read-outs stand apart in the source and are kept apart here. A value given as a limit tells only on which side of the number the result lay.

`CC(C)(O)/C=C/c1ccc(-n2nc(C(N)=O)c3c2-c2cc(NC(=O)c4ccccc4Cl)ccc2CC3)cc1` [Example 289, 8-[(2-chlorobenzoyl)amino]-1-{4-[(1E)-3-hydroxy-3-methylbut-1-enyl]phenyl}-4,5-dihydro-1H-benzo[g]indazole-3-carboxamide]: under setting [1], the IC50 is no more than 1000 nM.
`COc1ccc(C(=O)Nc2ccc3c(c2)-c2c(c(C(N)=O)nn2-c2ccc(F)cc2)CC3)c(Cl)c1` [Example 233, 8-[(2-chloro-4-methoxybenzoyl)amino]-1-(4-fluorophenyl)-4,5-dihydro-1H-benzo[g]indazole-3-carboxamide]: the IC50 under setting [2] was no more than 1000 nM.
Regarding `NC(=O)c1nn(-c2cccc(N)c2)c2c1CCc1ccc(NC(=O)c3ccccc3Cl)cc1-2` [Example 375, 1-(3-aminophenyl)-8-[(2-chlorobenzoyl)amino]-4,5-dihydro-1H-benzo[g]indazole-3-carboxamide], under “Table 15, read-out: IKK2 Resin IC50”, the IC50 was no more than 1000 nM.
For `NC(=O)c1nn(-c2ccc(F)c(Cl)c2)c2c1CCc1ccc(NC(=O)c3ccccc3Cl)cc1-2` [Example 356, 8-[(2-chlorobenzoyl)amino]-1-(3-chloro-4-fluorophenyl)-4,5-dihydro-1H-benzo[g]indazole-3-carboxamide], under setting [3], the IC50 was no more than 1000 nM.
As to `CC(C)CNCC(=O)Nc1ccc2c(c1)-c1c(c(C(N)=O)nn1-c1ccc3c(c1)OCO3)CC2` [Example 451, 1-(1,3-benzodioxol-5-yl)-8-[(N-isobutylglycyl)amino]-4,5-dihydro-1H-benzo[g]indazole-3-carboxamide], the IC50 (Table 23, read-out: IKK2 Resin IC50) was no more than 1000 nM.
On to `COc1cc(Cl)c(C(=O)Nc2ccc3c(c2)-c2c(c(C(N)=O)nn2-c2ccc(F)cc2)CC3)cc1OC` [Example 239, 8-[(2-chloro-4,5-dimethoxybenzoyl)amino]-1-(4-fluorophenyl)-4,5-dihydro-1H-benzo[g]indazole-3-carboxamide], for which the IC50 under setting [2] is no more than 1000 nM.
In the case of `CS(=O)(=O)c1ccc(C(=O)Nc2ccc3c(c2)-c2c(c(C(N)=O)nn2-c2ccc4c(c2)OCO4)CC3)c(Cl)c1` [Example 163, 1-(1,3-benzodioxol-5-yl)-8-{[2-chloro-4-(methylsulfonyl)benzoyl]amino}-4,5-dihydro-1H-benzo[g]indazole-3-carboxamide], the IC50 under setting [4] was no more than 1000 nM.
Regarding `CCNC(=O)/C=C/c1ccc(-n2nc(C(N)=O)c3c2-c2cc(NC(=O)c4ccccc4Cl)ccc2CC3)cc1` [Example 312, 8-[(2-chlorobenzoyl)amino]-1-{4-[(1E)-3-(ethylamino)-3-oxoprop-1-enyl]phenyl)-4,5-dihydro-1H-benzo[g]indazole-3-carboxamidee], the IC50 (Table 12, read-out: IKK2 Resin IC50) is no more than 1000 nM.
As to `CSc1ccc(Cl)c(C(=O)Nc2ccc3c(c2)-c2c(c(C(N)=O)nn2-c2ccc(S(C)(=O)=O)cc2)CC3)c1` [Example 137, 8-{[2-chloro-5-(methylthio)benzoyl]amino}-1-[4-(methylsulfonyl)phenyl]-4,5-dihydro-1H-benzo[g]indazole-3-carboxamide], under setting [5], the IC50 was no more than 1000 nM.
Consider `CN(C)S(=O)(=O)c1ccc(-n2nc(C(N)=O)c3c2-c2cc(NC(=O)c4ccccc4Cl)ccc2CC3)cc1` [Example 50, 8-[(2-chlorobenzoyl)amino]-1-{4-[(dimethylamino)sulfonyl]phenyl}-4,5-dihydro-1H-benzo[g]indazole-3-carboxamide], for which the IC50 (Table 1, read-out: IKK2-resin) was no more than 1000 nM.
On to `NC(=O)c1nn(-c2cccc(F)c2)c2c1CCc1ccc(NC(=O)c3cccnc3Cl)cc1-2` [Example 345, 8-{[(2-chloropyridin-3-yl)carbonyl]amino}-1-(3-fluorophenyl)-4,5-dihydro-1H-benzo[g]indazole-3-carboxamide], for which, under setting [3], the IC50 is no more than 1000 nM.
Consider `CCCS(=O)(=O)c1ccc(-n2nc(C(N)=O)c3c2-c2cc(NC(=O)c4ccccc4Cl)ccc2CC3)cc1` [Example 400, 8-[(2-chlorobenzoyl)amino]-1-[4-(propylsulfonyl)phenyl]-4,5-dihydro-1H-benzo[g]indazole-3-carboxamide], for which, under “Table 18, read-out: IKK2 Resin IC50”, the IC50 is no more than 1000 nM.
As for `NC(=O)c1nn(-c2ccc(F)c(F)c2)c2c1CCc1ccc(NC(=O)c3cccnc3Cl)cc1-2` [Example 364, 8-{[(2-chloropyridin-3-yl)carbonyl]amino}-1-(3,4-difluorophenyl)-4,5-dihydro-1H-benzo[g]indazole-3-carboxamide], the IC50 under setting [3] is no more than 1000 nM.
`NC(=O)c1nn(-c2ccc(F)cc2)c2c1CCc1ccc(NC(=O)c3cc(N4CCNCC4)ncc3Cl)cc1-2` [Example 253, 8-[(5-chloro-2-piperazin-1-ylisonicotinoyl)amino]-1-(4-fluorophenyl)-4,5-dihydro-1H-benzo[g]indazole-3-carboxamide]: the IC50 (Table 7, read-out: IKK2 Resin IC50) is no more than 1000 nM.
Turning to `NC(=O)c1nn(-c2ccc(F)cc2)c2c1CCc1ccc(NC(=O)c3cccc(Cl)c3Cl)cc1-2` [Example 238, 8-[(2,3-dichlorobenzoyl)amino]-1-(4-fluorophenyl)-4,5-dihydro-1Hbenzo[g]indazole-3-carboxamide], under setting [2], the IC50 was no more than 1000 nM.
In the case of `CS(=O)(=O)c1ccc(-n2nc(C(N)=O)c3c2-c2cc(NC(=O)c4ccncc4)ccc2CC3)cc1` [Example 110, 8-(isonicotinoylamino)-1-[4-(methylsulfonyl)phenyl]-4,5-dihydro-1H-benzo[g]indazole-3-carboxamide], under setting [6], the IC50 is no more than 1000 nM.
As for `CS(=O)(=O)c1ccc(-n2nc(C(N)=O)c3c2-c2cc(NC(=O)c4ccc([N+](=O)[O-])cc4Cl)ccc2CC3)cc1` [Example 146, 8-[(2-chloro-4-nitrobenzoyl)amino]-1-[4-(methylsulfonyl)phenyl]-4,5-dihydro-1H-benzo[g]indazole-3-carboxamide], the IC50 under setting [5] is no more than 1000 nM.
In the case of `NC(=O)c1nn(-c2ccc(O)cc2)c2c1CCc1ccc(NC(=O)c3cccnc3Cl)cc1-2` [Example 263, 8-{[(2-chloropyridin-3-yl)carbonyl]amino}-1-(4-hydroxyphenyl)-4,5-dihydro-1H-benzo[g]indazole-3-carboxamide], the IC50 (Table 8, read-out: IKK2 Resin IC50) is no more than 1000 nM.
As for `NC(=O)c1nn(-c2ccccc2)c2c1CCc1ccc(NC(=O)c3ccccc3Cl)cc1-2` [Example 328, 8-[(2-chlorobenzoyl)amino]-1-phenyl-4,5-dihydro-1H-benzo[g]indazole-3-carboxamide], under setting [3], the IC50 was no more than 1000 nM.
As to `CC(=O)CCc1ccc(-n2nc(C(N)=O)c3c2-c2cc(NC(=O)c4cccnc4Cl)ccc2CC3)cc1` [Example 302, 8-{[(2-chloropyridin-3-yl)carbonyl]amino}-1-[4-(3-oxobutyl)phenyl]-4,5-dihydro-1H-benzo[g]indazole-3-carboxamide], under setting [1], the IC50 is no more than 1000 nM.
For `Cc1ccc(-n2nc(C(N)=O)c3c2-c2cc(NC(=O)c4ccccc4Cl)ccc2CC3)cc1` [Example 335, 8-[(2-chlorobenzoyl)amino]-1-(4-methylphenyl)-4,5-dihydro-1H-benzo[g]indazole-3-carboxamide], the IC50 under setting [3] is no more than 1000 nM.
With `NC(=O)c1nn(-c2ccc3c(c2)OCO3)c2c1CCc1ccc(NC(=O)c3ccncc3)cc1-2` [Example 196, 1-(1,3-benzodioxol-5-yl)-8-(isonicotinoylamino)-4,5-dihydro-1H-benzo[g]indazole-3-carboxamide], the IC50 under setting [4] is no more than 1000 nM.
Consider `NC(=O)c1nn(-c2ccc(OCCN3CCOCC3)cc2)c2c1CCc1ccc(NC(=O)c3ccccc3Cl)cc1-2` [Example 264, 8-[(2-chlorobenzoyl)amino]-1-[4-(2-morpholin-4-ylethoxy)phenyl]-4,5-dihydro-1H-benzo[g]indazole-3-carboxamide], for which the IC50 (Table 9, read-out: IKK2 Resin IC50) was no more than 1000 nM.
`CS(=O)(=O)/C=C/c1ccc(-n2nc(C(N)=O)c3c2-c2cc(NC(=O)c4ccccc4Cl)ccc2CC3)cc1` [Example 297, 8-[(2-chlorobenzoyl)amino]-1-{4-[(E)-2-(methylsulfonyl)ethenyl]phenyl}-4,5-dihydro-1H-benzo[g]indazole-3-carboxamide]: under setting [1], the IC50 is no more than 1000 nM.
Turning to `CS(=O)(=O)c1ccc(-n2nc(C(N)=O)c3c2-c2cc(NC(=O)c4ccc(Cl)c(N)c4)ccc2CC3)cc1` [Example 113, 8-[(3-amino-4-chlorobenzoyl)amino]-1-[4-(methylsulfonyl)phenyl]-4,5-dihydro-1H-benzo[g]indazole-3-carboxamide], under setting [6], the IC50 was no more than 1000 nM.
Same read-out and setting: then `CS(=O)(=O)c1ccc(-n2nc(C(N)=O)c3c2-c2cc(NC(=O)c4cccc(Cl)c4N)ccc2CC3)cc1` [Example 118, 8-[(2-amino-3-chlorobenzoyl)amino]-1-[4-(methylsulfonyl)phenyl]-4,5-dihydro-1H-benzo[g]indazole-3-carboxamide], with no more than 1000 nM.
